Among the data in patent EP0478235A2, “A directed biosynthesis for an immunomycin derivative” (MERCK & CO. INC., priority 1990, dated 1992) are inhibition values, retold here.

The subject of this assay is T lymphocytes. In words: T-cell proliferation assay (tritiated thymidine incorporation, ionomycin + PMA stimulation). The format is cell-based, C57B1/6 mice. The following applies: T-lymphocyte. As for the experimental part:
Purified compound, or fractions, prepared by HPLC, was dissolved in absolute ethanol at a final concentration of 100 µg/ml.
Spleens from C57B1/6 mice were taken under sterile conditions and gently dissociated in ice-cold RPMI 1640 culture medium (GIBCO, Grand Island, N. Y.) supplemented with 10% heat-inactivated fetal calf serum (GIBCO). Cells were pelleted by centrifugation at 1500 rpm for 8 minutes. Contaminating red cells were removed by treating the pellet with ammonium chloride lysing buffer (GIBCO) for 2 minutes at 4°C. Cold medium was added and cells were again centrifuged at 1500 rpm for 8 minutes. T lymphocytes were then isolated by separation of the cell suspension on nylon wool columns as follows: Nylon wool columns were prepared by packing approximately 4 grams of washed and dried nylon wool into 20 ml plastic syringes. The columns were sterilized by autoclaving at 250°F for 30 minutes. Nylon wool columns were wetted with warm (37°C) culture medium and rinsed with the same medium. Washed spleen cells resuspended in warm medium were slowly applied to the nylon wool. The columns were then incubated in an upright position at 37°C for 1 hour. Non-adherent T lymphocytes were eluted from the columns with warm culture medium and the cell suspensions were spun as above.
Purified T lymphocytes were resuspended at […] in complete culture medium composed of RPMI 1640 medium with 10% heat-inactivated fetal calf serum, […], 1mM sodium pyruvate, 2 x 10⁻⁵M 2-mercaptoethanol and 50 µg/ml gentamycin. Ionomycin was added at 250 ng/ml and PMA at 10 ng/ml. The cell suspension was immediately distributed into 96 well flat-bottom microculture plates (Costar) at 200 µl/well. The control, being the medium without test drug, and various below-indicated dilutions of the sample (above-described purified prolylimmunomycin) to be tested were then added in triplicate wells at 20 µl/well. FK-520 was used as a standard. The culture plates were then incubated at 37°C in a humidified atmosphere of 5% CO₂-95% air for 44 hours. The proliferation of T lymphocytes was assessed by measurement of tritiated thymidine incorporation. After 44 hours of culturing, the cells were pulse-labelled with 2 µCi/well of tritiated thymidine (NEN, Cambridge, MA). After another 4 hours of incubation, cultures were harvested on glass fiber filters using a multiple sample harvester. Radioactivity of filter discs corresponding to individual wells as measured by standard liquid scintillation counting methods (Betacounter). Mean counts per minute of replicate wells were calculated and the results expressed as percent inhibition of tritiated thymidine uptake (profileration) as follows: Inhibition = 100 -(Mean cpm sample tested X 100.)/(Mean cpm control medium) [formula]

In the case of `CC[C@@H]1/C=C(\C)C[C@H](C)C[C@H](OC)[C@H]2O[C@@](O)(C(=O)C(=O)N3CCCC[C@H]3C(=O)O[C@H](/C(C)=C/[C@@H]3CC[C@@H](O)[C@H](OC)C3)[C@H](C)[C@@H](O)CC1=O)[C@H](C)C[C@@H]2OC` [FK-520, immunomycin], the inhibition (as a rule, how much of the control response was suppressed) at 0.004 µg/mL (Mus musculus, 4 ng/ml, standard) was 99%.
In the case of `CC[C@@H]1/C=C(\C)C[C@H](C)C[C@H](OC)[C@H]2O[C@@](O)(C(=O)C(=O)N3CCC[C@H]3C(=O)O[C@H](/C(C)=C/[C@@H]3CC[C@@H](O)[C@H](OC)C3)[C@H](C)[C@@H](O)CC1=O)[C@H](C)C[C@@H]2OC` [Prolyl-Immunomycin, prolyl-immunomycin], the inhibition at 0.0019 µg/mL (1.9 ng/ml, mouse T cell cultures pulsed with 3H-thymidine for 4 hours prior to harvesting at 48 hours) is 8.2%. Further, under “3.9 ng/ml, mouse T cell cultures pulsed with 3H-thymidine for 4 hours prior to harvesting at 48 hours”, the inhibition at 0.0039 µg/mL is 47%. In addition, where the note is “7.8 ng/ml, mouse T cell cultures pulsed with 3H-thymidine for 4 hours prior to harvesting at 48 hours”, the inhibition at 0.0078 µg/mL was 84.8%. Besides, the inhibition at 0.0155 µg/mL (15.5 ng/ml, mouse T cell cultures pulsed with 3H-thymidine for 4 hours prior to harvesting at 48 hours) came out at 94.3%. Also, the inhibition at 0.031 µg/mL (31.0 ng/ml, mouse T cell cultures pulsed with 3H-thymidine for 4 hours prior to harvesting at 48 hours) was 96.3%. For the same compound, where the note is “62.0 ng/ml, mouse T cell cultures pulsed with 3H-thymidine for 4 hours prior to harvesting at 48 hours”, the inhibition at 0.062 µg/mL turned out to be 97.8%.
